Assay type in all cases: cell-based
One test concerns the target AXL (Homo sapiens (Human), UniProt P30530). Nature of the test: AXL autophosphorylation ELISA in A-172 cells. The note with it: cellular, Gas6-stimulated, phospho-AXL ELISA. As to the method: A-172 glioblastoma cells (ATCC #CRL-1620) were seeded at 2.5×10^5 cells/well onto 24-well plates (Greiner #662165), in […] (Thermo Fisher #11995-040) containing 10% FBS (Thermo Fisher #26140-079), […] (Thermo Fisher #11140-050), […] (Thermo Fisher #35050-061), and 1% Penicillin Streptomycin (Thermo Fisher #15140-122). A-172 cells were incubated at 37° C., […] for 24 hand then starved for 24 h in serum-free medium. Test compounds were serially diluted to produce an 8-point dose curve in fresh serum-free medium to a final concentration of 0.3% DMSO (vehicle) and added to the cells and incubated for 1 h. Cells were then stimulated with 1 μg/mL recombinant human Gas6 (R&D Systems #885-GSB-500) for 15 min, washed with cold PBS, and immediately lysed with 150 μL of cold 1× lysis buffer [20 mM Tris, 137 mM sodium chloride, 2 mM EDTA, 10% glycerol, 1% NP-40 alternative, 1 mM activated sodium orthovanadate, 1 mM PefaBloc SC (Sigma-Aldrich #11429868001), protease/phosphatase inhibitor tablet (Thermo Fisher #A32959)]. Lysates were collected and 100 μL/well added into the human phospho-AXL DuoSet IC ELISA (R&D Systems #DYC2228-2). Assay was performed according to manufacturer's instructions and sample phospho-AXL concentrations were extrapolated using human phospho-AXL control (R&D Systems #841645) as a standard. Positive control wells (100% activity) contained Gas6-stimulated, DMSO-treated cell lysates. Negative control wells (0% activity) contained Gas6-stimulated, reference inhibitor-treated cell lysates. IC50 values were calculated by nonlinear regression analysis using a 4-parameter logistic curve fit in ActivityBase XE (IDBS).
For orientation: In an ELISA, binding on a coated surface is turned into a signal by an enzyme label.

The target of another test is Mer (Homo sapiens (Human), UniProt Q12866). Nature of the test: Mer autophosphorylation ELISA in transient transfected 293A cells. The settings on record: cellular, MERTK-transfected 293A cells, phospho-Mer ELISA. As to the method:
293A cells (Thermo Fisher #R70507) were seeded at 1.5×10^6 cells/well onto 100 mm dish (Greiner #664169), in DMEM (Thermo Fisher #11995-040) containing 10% FBS (Thermo Fisher #26140-079), 1% MEM NEAA (Thermo Fisher #11140-050), 1% GlutaMax (Thermo Fisher #35050-061), and 1% Penicillin Streptomycin (Thermo Fisher #15140-122). 293A cells were incubated at 37° C., 5% CO2 for 24 h and then transfected with 6 μg MERTK DNA (Genecopoeia #EX-Z8208-M02) using TransIT LT1 transfection reagent (Mirus-Bio #MIR2305). After 24 h incubation, the transfected 293A cells were seeded at 1×10^5 cells/well onto 96-well plates (Corning #3904) in DMEM growth medium overnight. Test compounds were serially diluted to produce an 8-point dose curve in fresh serum-free medium to a final concentration of 0.3% DMSO (vehicle) and added to the cells and incubated for 1 h. Cells were then immediately lysed with 150 μL of cold 1× lysis buffer [20 mM Tris, 137 mM sodium chloride, 2 mM EDTA, 10% glycerol, 1% NP-40 alternative, 1 mM activated sodium orthovanadate, 1 mM PefaBloc SC (Sigma-Aldrich #11429868001), protease/phosphatase inhibitor tablet (Thermo Fisher #A32959)]. Lysates were clarified by centrifugation and 50 μL/well added into the human phospho-Mer DuoSet IC ELISA (R&D Systems #DYC2579-2). Assay was performed according to manufacturer's instructions and sample phospho-Mer concentrations were extrapolated using human phospho-Mer control (R&D Systems #841793) as a standard. Positive control wells (100% activity) contained DMSO-treated cell lysates. Negative control wells (0% activity) contained reference inhibitor-treated cell lysates. IC50 values were calculated by nonlinear regression analysis using a 4-parameter logistic curve fit in ActivityBase XE (IDBS).

The target in another test is Met (Homo sapiens (Human), UniProt P08581). Put plainly: Met autophosphorylation ELISA in PC-3 cells. The settings on record: cellular, HGF-stimulated, phospho-Met ELISA, read-out: c-Met IC50. As to the method:
PC-3 prostate cancer cells (ATCC #CRL-1435) were seeded at 4×10^4 cells/well onto 24-well plates (Greiner #662165), in DMEM (Thermo Fisher #11995-040) containing 10% FBS (Thermo Fisher #26140-079), 1% MEM NEAA (Thermo Fisher #11140-050), 1% GlutaMax (Thermo Fisher #35050-061), and 1% Penicillin Streptomycin (Thermo Fisher #15140-122). PC-3 cells were incubated at 37° C., 5% CO2 for 24 h and then starved for 3 h in serum-free medium. Test compounds were serially diluted to produce an 8-point dose curve in fresh serum-free medium to a final concentration of 0.3% DMSO (vehicle) and added to the cells and incubated for 1 h. Cells were then stimulated with 100 ng/mL recombinant human HGF (R&D Systems #294-HG-250) for 10 min, washed with cold PBS, and immediately lysed with 130 μL of cold 1× lysis buffer [20 mM Tris, 137 mM sodium chloride, 2 mM EDTA, 10% glycerol, 1% NP-40 alternative, 1 mM activated sodium orthovanadate, 1 mM PefaBloc SC (Sigma-Aldrich #11429868001), and protease/phosphatase inhibitor tablet (Thermo Fisher #A32959)]. Lysates were clarified by centrifugation and 100 μL/well added into the PathScan phospho-Met (panTyr) Sandwich ELISA (Cell Signaling Technology #7333). Assay was performed according to manufacturer's instructions. Positive control wells (100% activity) contained HGF-stimulated, DMSO-treated cell lysates. Negative control wells (0% activity) contained HGF-stimulated, reference inhibitor-treated cell lysates. IC50 values were calculated by nonlinear regression analysis using a 4-parameter logistic curve fit in ActivityBase XE (IDBS).

The target in a further test is KDR (Homo sapiens (Human), UniProt P35968). Nature of the test: KDR autophosphorylation ELISA in HUVEC cells. The note with it: cellular, VEGF165-stimulated, phospho-KDR ELISA. As to the method: Human umbilical vein endothelial cells or HUVEC (Lonza #C2519A) were seeded at 2×10^4 cells/well onto 96-well plates (Corning #3904), in EGM-2 growth medium (Lonza #CC-3162) containing 1% Penicillin Streptomycin (Thermo Fisher #15140-122). HUVEC cells were incubated at 37° C., 5% CO2 for 24 h and then starved for 24 h in serum-free EBM-2 basal medium (Lonza #CC-3156) containing 1% Penicillin Streptomycin. Test compounds were serially diluted to produce an 8-point dose curve in fresh serum-free medium to a final concentration of 0.3% DMSO (vehicle) and added to the cells and incubated for 1 h. Cells were then stimulated with 100 ng/mL recombinant human VEGF165 (R&D Systems #293-VE-500) for 5 min, washed with cold PBS, and immediately lysed with 130 μL of cold 1× lysis buffer [20 mM Tris, 137 mM sodium chloride, 2 mM EDTA, 10% glycerol, 1% NP-40 alternative, 1 mM activated sodium orthovanadate, 1 mM PefaBloc SC (Sigma-Aldrich #11429868001), protease/phosphatase inhibitor tablet (Thermo Fisher #A32959)]. Lysates were collected and 100 μL/well added into the human phospho-KDR DuoSet IC ELISA (R&D Systems #DYC1766-2). Assay was performed according to manufacturer's instructions and sample phospho-KDR concentrations were extrapolated using human phospho-KDR control (R&D Systems #841421) as a standard. Positive control wells (100% activity) contained VEGF165-stimulated, DMSO-treated cell lysates. Negative control wells (0% activity) contained non-stimulated cell lysates. IC50 values were calculated by nonlinear regression analysis using a 4-parameter logistic curve fit in ActivityBase XE (IDBS).
Chain of KDR (P35968 20-1356): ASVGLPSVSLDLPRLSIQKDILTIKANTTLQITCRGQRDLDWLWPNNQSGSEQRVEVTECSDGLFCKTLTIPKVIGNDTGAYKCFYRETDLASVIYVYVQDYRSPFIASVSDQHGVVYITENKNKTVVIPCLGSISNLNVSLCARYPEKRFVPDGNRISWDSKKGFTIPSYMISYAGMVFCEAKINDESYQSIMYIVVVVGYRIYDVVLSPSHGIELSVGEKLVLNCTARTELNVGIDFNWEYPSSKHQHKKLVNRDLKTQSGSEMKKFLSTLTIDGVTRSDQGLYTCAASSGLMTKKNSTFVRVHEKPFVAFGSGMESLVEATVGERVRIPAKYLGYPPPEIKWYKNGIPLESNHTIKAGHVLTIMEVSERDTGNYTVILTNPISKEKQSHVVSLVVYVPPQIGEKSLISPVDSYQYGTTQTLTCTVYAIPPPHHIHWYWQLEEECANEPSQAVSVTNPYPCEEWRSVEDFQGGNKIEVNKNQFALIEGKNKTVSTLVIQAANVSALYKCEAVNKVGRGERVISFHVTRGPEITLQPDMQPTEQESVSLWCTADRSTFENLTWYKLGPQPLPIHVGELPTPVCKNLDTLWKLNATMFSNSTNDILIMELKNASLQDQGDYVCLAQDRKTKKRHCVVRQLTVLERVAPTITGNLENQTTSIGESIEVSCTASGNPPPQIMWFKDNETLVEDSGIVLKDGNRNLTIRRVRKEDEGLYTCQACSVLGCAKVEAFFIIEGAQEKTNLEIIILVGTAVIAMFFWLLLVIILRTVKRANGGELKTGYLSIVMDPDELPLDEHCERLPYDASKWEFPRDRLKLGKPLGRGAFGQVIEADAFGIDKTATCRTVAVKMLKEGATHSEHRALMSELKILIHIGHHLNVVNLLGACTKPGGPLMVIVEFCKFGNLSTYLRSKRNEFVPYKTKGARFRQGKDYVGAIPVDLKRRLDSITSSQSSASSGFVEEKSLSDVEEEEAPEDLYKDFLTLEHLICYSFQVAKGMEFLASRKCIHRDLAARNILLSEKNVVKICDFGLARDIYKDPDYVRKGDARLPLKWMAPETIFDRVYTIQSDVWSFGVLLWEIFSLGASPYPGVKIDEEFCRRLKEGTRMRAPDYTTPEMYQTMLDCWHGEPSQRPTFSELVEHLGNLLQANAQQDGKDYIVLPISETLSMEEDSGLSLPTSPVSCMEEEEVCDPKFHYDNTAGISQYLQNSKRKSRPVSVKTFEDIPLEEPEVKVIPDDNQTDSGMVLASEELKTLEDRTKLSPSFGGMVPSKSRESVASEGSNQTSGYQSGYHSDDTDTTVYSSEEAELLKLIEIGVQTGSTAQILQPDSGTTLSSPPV

Chain of Met (P08581 25-1390): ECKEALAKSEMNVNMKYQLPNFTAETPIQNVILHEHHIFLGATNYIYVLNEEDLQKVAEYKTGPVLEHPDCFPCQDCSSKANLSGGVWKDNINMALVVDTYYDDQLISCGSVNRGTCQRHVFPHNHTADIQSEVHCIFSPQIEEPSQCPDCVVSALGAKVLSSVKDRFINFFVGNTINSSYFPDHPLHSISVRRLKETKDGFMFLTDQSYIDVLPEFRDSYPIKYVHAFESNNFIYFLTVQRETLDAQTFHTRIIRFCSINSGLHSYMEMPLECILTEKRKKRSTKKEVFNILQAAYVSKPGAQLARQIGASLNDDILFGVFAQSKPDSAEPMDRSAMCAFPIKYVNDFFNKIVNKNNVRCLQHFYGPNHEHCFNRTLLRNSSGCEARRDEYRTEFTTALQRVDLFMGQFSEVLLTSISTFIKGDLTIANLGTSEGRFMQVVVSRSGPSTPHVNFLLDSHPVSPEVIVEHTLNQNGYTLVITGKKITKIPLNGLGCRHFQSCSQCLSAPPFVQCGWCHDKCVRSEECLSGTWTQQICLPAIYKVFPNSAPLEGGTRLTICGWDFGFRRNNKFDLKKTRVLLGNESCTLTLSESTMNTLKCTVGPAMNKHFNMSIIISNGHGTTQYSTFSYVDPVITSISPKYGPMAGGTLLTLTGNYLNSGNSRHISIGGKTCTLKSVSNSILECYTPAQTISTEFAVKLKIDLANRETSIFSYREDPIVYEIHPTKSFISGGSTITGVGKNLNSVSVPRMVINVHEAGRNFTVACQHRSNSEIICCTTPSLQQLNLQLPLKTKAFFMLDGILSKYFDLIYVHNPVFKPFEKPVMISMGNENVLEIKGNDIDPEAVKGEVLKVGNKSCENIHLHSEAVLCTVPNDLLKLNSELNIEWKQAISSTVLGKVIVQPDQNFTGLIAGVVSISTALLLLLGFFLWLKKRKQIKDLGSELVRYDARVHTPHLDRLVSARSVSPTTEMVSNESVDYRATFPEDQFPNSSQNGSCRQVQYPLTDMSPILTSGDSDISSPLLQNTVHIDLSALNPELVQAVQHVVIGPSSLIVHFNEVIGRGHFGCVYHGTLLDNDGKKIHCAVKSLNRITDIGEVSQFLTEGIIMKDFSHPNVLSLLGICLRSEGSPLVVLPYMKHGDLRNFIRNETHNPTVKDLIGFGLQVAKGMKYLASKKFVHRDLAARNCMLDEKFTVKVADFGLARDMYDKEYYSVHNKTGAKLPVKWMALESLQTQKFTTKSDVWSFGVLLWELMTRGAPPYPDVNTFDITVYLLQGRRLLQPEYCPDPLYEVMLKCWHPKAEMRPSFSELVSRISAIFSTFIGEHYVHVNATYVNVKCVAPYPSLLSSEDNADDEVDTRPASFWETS
Chain of Mer (Q12866 21-999): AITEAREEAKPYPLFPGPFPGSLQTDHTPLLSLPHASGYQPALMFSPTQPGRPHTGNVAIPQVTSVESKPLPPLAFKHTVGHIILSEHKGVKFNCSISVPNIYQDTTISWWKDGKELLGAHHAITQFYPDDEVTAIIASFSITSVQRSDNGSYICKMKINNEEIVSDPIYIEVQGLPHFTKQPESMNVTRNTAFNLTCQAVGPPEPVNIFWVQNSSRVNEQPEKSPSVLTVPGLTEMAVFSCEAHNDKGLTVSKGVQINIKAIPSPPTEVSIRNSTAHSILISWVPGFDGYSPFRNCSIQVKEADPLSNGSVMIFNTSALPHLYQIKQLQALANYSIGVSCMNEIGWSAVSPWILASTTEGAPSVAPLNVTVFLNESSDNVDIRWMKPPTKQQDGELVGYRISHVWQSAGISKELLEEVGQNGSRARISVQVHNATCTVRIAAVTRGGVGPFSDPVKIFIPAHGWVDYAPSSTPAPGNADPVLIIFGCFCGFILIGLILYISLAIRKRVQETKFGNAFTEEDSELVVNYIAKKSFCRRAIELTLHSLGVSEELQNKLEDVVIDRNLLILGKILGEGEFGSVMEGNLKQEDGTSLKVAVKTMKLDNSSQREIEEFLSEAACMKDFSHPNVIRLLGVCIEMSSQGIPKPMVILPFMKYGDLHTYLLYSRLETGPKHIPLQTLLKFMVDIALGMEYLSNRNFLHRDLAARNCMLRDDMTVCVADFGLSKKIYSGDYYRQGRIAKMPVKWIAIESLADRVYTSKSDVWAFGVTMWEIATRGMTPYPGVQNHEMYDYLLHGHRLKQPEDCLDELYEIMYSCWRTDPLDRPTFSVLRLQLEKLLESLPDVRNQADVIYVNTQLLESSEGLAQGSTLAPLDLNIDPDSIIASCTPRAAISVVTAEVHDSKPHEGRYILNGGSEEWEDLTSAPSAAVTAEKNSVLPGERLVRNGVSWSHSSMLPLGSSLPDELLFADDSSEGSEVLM
Chain of AXL (P30530 26-894): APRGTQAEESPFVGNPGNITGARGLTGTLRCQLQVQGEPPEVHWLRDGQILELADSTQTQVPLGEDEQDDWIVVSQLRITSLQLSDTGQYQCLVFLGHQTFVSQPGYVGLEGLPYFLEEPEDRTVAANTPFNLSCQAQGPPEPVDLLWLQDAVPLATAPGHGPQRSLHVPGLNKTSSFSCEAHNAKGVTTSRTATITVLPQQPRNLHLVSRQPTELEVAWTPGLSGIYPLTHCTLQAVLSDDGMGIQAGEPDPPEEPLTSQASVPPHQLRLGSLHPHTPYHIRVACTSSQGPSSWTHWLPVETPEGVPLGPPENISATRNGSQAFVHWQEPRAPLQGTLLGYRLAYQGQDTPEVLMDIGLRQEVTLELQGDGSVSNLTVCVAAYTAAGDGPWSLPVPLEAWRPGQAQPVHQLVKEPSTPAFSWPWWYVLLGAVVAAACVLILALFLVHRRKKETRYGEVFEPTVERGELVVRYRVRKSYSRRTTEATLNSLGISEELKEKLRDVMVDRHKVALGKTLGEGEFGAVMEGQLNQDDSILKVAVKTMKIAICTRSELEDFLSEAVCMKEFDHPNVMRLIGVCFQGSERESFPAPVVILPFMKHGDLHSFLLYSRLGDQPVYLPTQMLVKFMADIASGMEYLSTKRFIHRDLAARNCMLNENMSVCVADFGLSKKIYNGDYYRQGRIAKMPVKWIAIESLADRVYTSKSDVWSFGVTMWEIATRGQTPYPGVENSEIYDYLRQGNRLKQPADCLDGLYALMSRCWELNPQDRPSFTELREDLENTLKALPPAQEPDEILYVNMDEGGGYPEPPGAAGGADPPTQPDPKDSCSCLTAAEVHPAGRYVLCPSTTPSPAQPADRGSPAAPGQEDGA

Consider `CNC(=O)c1cc2c(Oc3ncc(NC(=O)C4(C(=O)Nc5ccc(F)cc5)CC4)cc3F)ccnc2cc1OC` [Compound 22, 1-N′-[5-Fluoro-6-[7-methoxy-6-(methylcarbamoyl)quinolin-4-yl]oxypyridin-3-yl]-1-N-(4-fluorophenyl)cyclopropane-1,1-dicarboxamide], for which the half-inhibitory concentration (IC50) against AXL was at most 10 nM; against Mer it was 10 to 100 nM; at Met it was 10 to 100 nM; on KDR, over 300 nM.
In the case of `CCNC(=O)c1cc2c(Oc3ncc(NC(=O)C4(C(=O)Nc5ccc(F)cc5)CC4)cc3F)ccnc2cc1OC` [Compound 23, 1-N′-[6-[6-(Ethylcarbamoyl)-7-methoxyquinolin-4-yl]oxy-5-fluoropyridin-3-yl]-1-N-(4-fluorophenyl)cyclopropane-1,1-dicarboxamide], the IC50 at AXL was 10 to 100 nM; against Mer, 10 to 100 nM; on Met, 10 to 100 nM; against KDR, over 300 nM.
On to `NC(=O)c1cc2c(Oc3ncc(NC(=O)C4(C(=O)Nc5ccc(F)cc5)CC4)cc3F)ccnc2cc1OCCO` [Compound 39, 1-N′-[6-[6-Carbamoyl-7-(2-hydroxyethoxy)quinolin-4-yl]oxy-5-fluoropyridin-3-yl]-1-N-(4-fluorophenyl)cyclopropane-1,1-dicarboxamide], for which the IC50 against AXL is 10 to 100 nM; on Mer, 100 to 300 nM; at Met it was 10 to 100 nM; against KDR, over 300 nM.
Turning to `COc1nc2c(Oc3ncc(NC(=O)C4(C(=O)Nc5ccc(F)cc5)CC4)cc3F)ccnc2cc1OCCN1CCOCC1` [Compound 123, 1-N′-[5-Fluoro-6-[[6-methoxy-7-(2-morpholin-4-ylethoxy)-1,5-naphthyridin-4-yl]oxy]pyridin-3-yl]-1-N-(4-fluorophenyl)cyclopropane-1,1-dicarboxamide], the IC50 at AXL is 10 to 100 nM; at Mer, 10 to 100 nM; on Met it was 10 to 100 nM; at KDR, over 300 nM.
As for `NC(=O)c1cc2c(Oc3ncc(NC(=O)C4(C(=O)Nc5ccc(F)cc5)CC4)cc3Cl)ccnc2cc1OCCO` [Compound 38, 1-N′-[6-[6-Carbamoyl-7-(2-hydroxyethoxy)quinolin-4-yl]oxy-5-chloropyridin-3-yl]-1-N-(4-fluorophenyl)cyclopropane-1,1-dicarboxamide], the IC50 against AXL was 10 to 100 nM; on Mer, 10 to 100 nM; at Met, 10 to 100 nM; against KDR, over 300 nM.
Consider `COc1cc2nccc(Oc3ncc(NC(=O)C4(C(=O)Nc5ccc(F)cc5)CC4)cc3F)c2cc1-c1nnco1` [Compound 67, 1-N′-[5-Fluoro-6-[7-methoxy-6-(1,3,4-oxadiazol-2-yl)quinolin-4-yl]oxypyridin-3-yl]-1-N-(4-fluorophenyl)cyclopropane-1,1-dicarboxamide], for which the IC50 against AXL is 10 to 100 nM; at Mer it was 10 to 100 nM; at Met, 10 to 100 nM; against KDR, over 300 nM.
Turning to `CC(O)COc1cc2nccc(Oc3ncc(NC(=O)C4(C(=O)Nc5ccc(F)cc5)CC4)cc3Cl)c2cc1C(N)=O` (stereo not shown) [Compound 51, 1-N′-[6-[6-Carbamoyl-7-(2-hydroxypropoxy)quinolin-4-yl]oxy-5-chloropyridin-3-yl]-1-N-(4-fluorophenyl)cyclopropane-1,1-dicarboxamide], the IC50 against AXL was 10 to 100 nM; against Mer, 10 to 100 nM; at Met it was 10 to 100 nM; at KDR, over 300 nM.
On to `COc1nc2c(Oc3ccc(NC(=O)C4(C(=O)Nc5ccc(F)cc5)CC4)cn3)ncnc2cc1OCCCN1CCOCC1` [Compound 155, 1-N-(4-Fluorophenyl)-1-N′-[6-[6-methoxy-7-(3-morpholin-4-ylpropoxy)pyrido[3,2-d]pyrimidin-4-yl]oxypyridin-3-yl]cyclopropane-1,1-dicarboxamide], for which the half-inhibitory concentration (IC50) on AXL was 10 to 100 nM; against Mer it was 100 to 300 nM; on Met, 100 to 300 nM; against KDR, over 300 nM.
For `COc1cc2nccc(Oc3ncc(NC(=O)C4(C(=O)Nc5ccc(F)cc5)CC4)cc3F)c2cc1C(N)=O` [Compound 21, 1-N′-[6-(6-Carbamoyl-7-methoxyquinolin-4-yl)oxy-5-fluoropyridin-3-yl]-1-N-(4-fluorophenyl)cyclopropane-1,1-dicarboxamide], the IC50 at AXL is at most 10 nM; at Mer, 10 to 100 nM; at Met it was 10 to 100 nM; at KDR, over 300 nM.
For `COCCOc1cc2nccc(Oc3ncc(NC(=O)C4(C(=O)Nc5ccc(F)cc5)CC4)cc3F)c2nc1OC` [Compound 116, 1-N′-[5-Fluoro-6-[[6-methoxy-7-(2-methoxyethoxy)-1,5-naphthyridin-4-yl]oxy]pyridin-3-yl]-1-N-(4-fluorophenyl)cyclopropane-1,1-dicarboxamide], the IC50 against AXL was 10 to 100 nM; at Mer, 10 to 100 nM; on Met it was 100 to 300 nM; on KDR, over 300 nM.

The term IC50 denotes the concentration at which inhibition is half-maximal.

For the origin of these results see patent US11673897B2, “Compounds for the treatment of kinase-dependent disorders” (Exelixis, Inc., priority 2018, dated 2023).
